The target of assay [1] is T1, Human OX2 receptor (Homo sapiens (Human), UniProt O43614). Put plainly: IPone accumulation assay, CHO cells expressing OX2. Format: cell-based. The following applies: antagonism of orexin A (EC80 40 nM)-induced inositol phosphate turnover, read-out: fpKb average OX2 (converted). As to the method: Generation of CHO stable cell lines expressing the human OX1R and OX2R. Stable cell lines for the human OX1R and OX2R receptors were generated through the transfection of CHO cells using the transfection reagent Genejuice (Novagen number 70967) and cDNA coding for either the human OX1R or OX2R. Cells were cultured in Sigma Nutrient Mixture F-12 Ham media (catalog number N6658) supplemented with 10% heat-inactivated FBS. Forty-eight hours after transfection, cells were harvested and placed under geneticin selection by culturing in Sigma Nutrient Mixture F-12 Ham media supplemented with 10% heat-inactivated FBS and geneticin (ThermoFisher Catalog number: 10131035). Selection of the final stable clone for each receptor was made on the basis of receptor expression, assay signal to noise and robustness though increasing passage. Selected clones for the human OX1R and OX2R were then frozen down into liquid nitrogen using Cell Freezing Medium-DMSO (Sigma-Aldrich catalog number: C6164). IPone accumulation assay. A CHO cell line stably expressing either human OX1 or OX2 receptor was used with the IPone HTRF assay kit (CisBio: Part #62[…]) to measure receptor activation. The assay was optimised to measure the ability (potency; fpKb) of antagonists to reduce agonist (orexin A)-induced inositol phosphate turnover. Briefly, cells were plated onto half area 96-well white walled plates at a density of 12,500 cells/well. Sixteen hours post-plating cell growth media was replaced with antagonist concentration-response curve diluted in stimulation buffer (supplied with the kit). Cells were incubated in a humidified incubator (37° C.) for 30 min before an EC80 challenge concentration ( 20 nM (OX1) and 40 nM (OX2)) of orexin A (Tocris catalogue number 1455). After 30 min stimulation in a humidified incubator (37° C.) the assay was terminated by the addition of detection mixture as per manufacturer's instructions. The concentration of compound which reduced orexin-A stimulated turnover of inositol phosphates by 50% (IC50) was calculated by fitting to a four parameter sigmoidal dose response curve. The IC50 values were converted to fpKB values using the orexin A pEC50 value estimated on each plate as well as the challenge concentration interpolated from the orexin A control curve.
T1 sequence (O43614 whole entry): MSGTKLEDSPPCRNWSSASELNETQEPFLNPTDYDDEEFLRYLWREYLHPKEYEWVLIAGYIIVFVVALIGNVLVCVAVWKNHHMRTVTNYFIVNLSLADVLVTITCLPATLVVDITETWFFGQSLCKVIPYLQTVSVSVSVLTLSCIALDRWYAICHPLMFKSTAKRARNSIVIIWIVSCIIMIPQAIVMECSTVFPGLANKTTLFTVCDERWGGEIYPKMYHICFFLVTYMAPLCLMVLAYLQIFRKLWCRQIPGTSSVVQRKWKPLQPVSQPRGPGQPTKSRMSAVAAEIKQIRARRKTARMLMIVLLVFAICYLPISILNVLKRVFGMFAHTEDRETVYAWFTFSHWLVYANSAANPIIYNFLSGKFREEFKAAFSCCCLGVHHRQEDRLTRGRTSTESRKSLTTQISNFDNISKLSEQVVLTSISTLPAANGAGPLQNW

For assay [2], the target named is T2, Human OX1 receptor (Homo sapiens (Human), UniProt O43613). Briefly: [3H]-radioligand binding assay, OX1. The following applies: competition binding, membranes of SF21 cells, Ki by Cheng-Prusoff. The source says:
(§1) Cloning, Baculovirus generation, large-scale infection of SF21 cells and membrane preparation. Human OX1 or OX2 receptor were cloned into Invitrogen's (ThermoFisher Scientific, UK) Bac-to-Bac Baculovirus Expression System. P0 baculovirus was generated by transfecting SF9 cells with bacmid DNA using Cellfectin® II transfection reagent (ThermoFisher Scientific, UK, Catalog number 10362-100). Following P0 generation P1 virus was then generated ready for large scale infection and membrane preparation. SF21 cells were grown in expression medium ESF921 (Expression Systems, USA, catalog number 96-001-01) supplemented with 10% heat-inactivated FBS and 1% Pen/Strep and were infected at a cell density of 2.5×10^6 cells/mL and a multiplicity of infection of 1.0 for both human OX1R and OX2R. Incubation was carried out at over 48 h in a shaking incubator set at 27° C. The cell culture was then centrifuged at 2,500 rcf for 10 min at 4° C. The pellets were resuspended in cold PBS supplemented with Roche's Complete EDTA-free protease inhibitor cocktail tablets (Roche Applied Sciences, catalog number 05056489001), 1 mM PMSF and 1 mM EDTA. The resuspended cell paste was then centrifuged at 3,273 rcf for 12 min at 4° C. The supernatant was discarded and the pellet frozen at −80° C. The cell pellet from a 4 L culture was resuspended in buffer containing 50 mM HEPES pH 7.5, 150 mM NaCl, 8 Roche EDTA-Free protease inhibitor cocktail tablets and 1 mM PMSF. The suspension was left stirring at rt for 1 h and then homogenised for 90 s at 9,500 rpm using a VDI 25 (VWR, USA) homogeniser. The cells were then lysed using a Microfluidiser processor M-110L Pneumatic (Microfluidics, USA) at 60 PSI and membranes collected by ultracentrifugation at 204.7 k×g for 1 h. The supernatant was discarded and the pellet was resuspended and homogenised in 90 s at 9,500 rpm in 50 mL (25 mL for each 2 L culture) of buffer containing 50 mM Hepes pH 7.5, 150 mM NaCl, 3 Roche EDTA-free protease inhibitor cocktail tablets and 1 mM PMSF. The resulting membranes were then stored at −80° C.
(§2) [^3H]-radioligand binding assay. After thawing, membrane homogenates were resuspended in the binding buffer (8.5 mM HEPES, pH 7.4, 1.3 mM CaCl2, 1.2 mM MgSO4, 118 mM NaCl, 4.7 mM KCl, 4 mM NaHCO3, 1.2 mM KH2PO4, 11 mM glucose) to a final assay concentration of 6.4 μg (OX1) or 1.4 μg (OX2) protein per well. Saturation isotherms were determined by the addition of various concentrations (0-30 nM) of [^3H]-4-(2,6-difluoro-4-methoxybenzyl)-2-(5,6-dimethoxypyridin-3-yl)-2H-1,2,4-benzothiadiazin-3(4H)-one 1,1-dioxide (Christopher et al, MedChemComm., 2015, 6, 947-955) in a total reaction volume of 250 μL for 90 min at rt. At the end of the incubation, membranes were filtered onto a 96-well GF/B filter pre-incubated with 0.5% polyethylenimine, with a Tomtec cell harvester and washed 5 times with 0.5 mL distilled water. Non-specific binding (NSB) was measured in the presence of 3.33 μM [4-(5-chloro-1,3-benzoxazol-2-yl)-7-methyl-1,4-diazepan-1-yl][5-methyl-2-(2H-1,2,3-triazol-2-yl)phenyl]methanone (Wertz et al, Angew. Chem. Int. Ed., 2011, 50, 11511-11515). Radioactivity on the filter was counted (1 min) on a Microbeta radiometric plate counter (Perkin Elmer) after addition of 50 μL of scintillation fluid (LabLogic: Part #SG-BXX-14). […] IC50 values were derived from the inhibition curve and the equilibrium dissociation constant (Ki) values were calculated using the Cheng-Prusoff equation.

For assay [3], the target named is T2, Human OX1 receptor. Briefly: IPone accumulation assay, CHO cells expressing OX1. Format: cell-based. The conditions noted are these: antagonism of orexin A (EC80 ~20 nM)-induced inositol phosphate turnover, read-out: fpKb average OX1 (converted). As to the method: Generation of CHO stable cell lines expressing the human OX1R and OX2R. Stable cell lines for the human OX1R and OX2R receptors were generated through the transfection of CHO cells using the transfection reagent Genejuice (Novagen number 70967) and cDNA coding for either the human OX1R or OX2R. Cells were cultured in Sigma Nutrient Mixture F-12 Ham media (catalog number N6658) supplemented with 10% heat-inactivated FBS. Forty-eight hours after transfection, cells were harvested and placed under geneticin selection by culturing in Sigma Nutrient Mixture F-12 Ham media supplemented with 10% heat-inactivated FBS and geneticin (ThermoFisher Catalog number: 10131035). Selection of the final stable clone for each receptor was made on the basis of receptor expression, assay signal to noise and robustness though increasing passage. Selected clones for the human OX1R and OX2R were then frozen down into liquid nitrogen using Cell Freezing Medium-DMSO (Sigma-Aldrich catalog number: C6164).
IPone accumulation assay. A CHO cell line stably expressing either human OX1 or OX2 receptor was used with the IPone HTRF assay kit (CisBio: Part #62IPAPEJ) to measure receptor activation. The assay was optimised to measure the ability (potency; fpKb) of antagonists to reduce agonist (orexin A)-induced inositol phosphate turnover. Briefly, cells were plated onto half area 96-well white walled plates at a density of 12,500 cells/well. Sixteen hours post-plating cell growth media was replaced with antagonist concentration-response curve diluted in stimulation buffer (supplied with the kit). Cells were incubated in a humidified incubator (37° C.) for 30 min before an EC80 challenge concentration (˜20 nM (OX1) and 40 nM (OX2)) of orexin A (Tocris catalogue number 1455). After 30 min stimulation in a humidified incubator (37° C.) the assay was terminated by the addition of detection mixture as per manufacturer's instructions. The concentration of compound which reduced orexin-A stimulated turnover of inositol phosphates by 50% (IC50) was calculated by fitting to a four parameter sigmoidal dose response curve. The IC50 values were converted to fpKB values using the orexin A pEC50 value estimated on each plate as well as the challenge concentration interpolated from the orexin A control curve.

Assay [4] addresses T1, Human OX2 receptor. Put plainly: [3H]-radioligand binding assay, OX2. The following applies: competition binding, membranes of SF21 cells, Ki by Cheng-Prusoff.
Source text: as §1, §2

SMILES strings stand for the structures.

T2 sequence (O43613 whole entry): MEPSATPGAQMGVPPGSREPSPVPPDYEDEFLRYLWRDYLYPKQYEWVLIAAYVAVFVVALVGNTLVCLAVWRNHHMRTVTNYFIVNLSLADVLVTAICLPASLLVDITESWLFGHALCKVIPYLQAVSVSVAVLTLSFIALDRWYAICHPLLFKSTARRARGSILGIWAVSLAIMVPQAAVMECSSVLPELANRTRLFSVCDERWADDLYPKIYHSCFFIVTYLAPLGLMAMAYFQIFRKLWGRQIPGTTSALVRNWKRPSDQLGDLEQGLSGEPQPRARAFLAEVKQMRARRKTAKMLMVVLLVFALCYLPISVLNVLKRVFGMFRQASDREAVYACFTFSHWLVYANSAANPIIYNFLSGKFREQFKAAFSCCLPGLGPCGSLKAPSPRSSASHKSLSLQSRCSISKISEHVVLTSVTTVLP

Consider `CC(=O)Nc1ccc(-n2nccn2)c(C(=O)N(C(C)C)[C@H]2CCC[C@@H]2COc2ccc(F)cc2)n1` [Example 7, 6-acetamido-N-[(1S,2S)-2-[(4-fluorophenoxy)methyl]cyclopentyl]-N-isopropyl-3-(triazol-2-yl)pyridine-2-carboxamide], for which the Kb at Human OX2 receptor [1] is more than 794 nM; on Human OX1 receptor [3], 25.1 nM. For the same compound, the “pKi average OX1” value on Human OX1 receptor [2] is listed as 8.1. Besides, the “pKi average OX2” value on Human OX2 receptor [4] is listed as less than 5.3.
In the case of `O=C(N[C@H]1CCC[C@@H]1COc1ccc(F)cc1)c1nc(NCCO)ccc1-n1nccn1` [Example 20, N-[(1S,2S)-2-[(4-fluorophenoxy)methyl]cyclopentyl]-6-(2-hydroxyethylamino)-3-(triazol-2-yl)pyridine-2-carboxamide], the Kb at Human OX2 receptor [1] was more than 501 nM; at Human OX1 receptor [3] it was 7.94 nM. The “pKi average OX1” value at Human OX1 receptor [2] is 8.4. Besides, the “pKi average OX2” value at Human OX2 receptor [4] stood at 5.8.
For `CC(=O)Nc1ccc(-c2ncccn2)c(C(=O)N[C@H]2CCC[C@@H]2COc2ccc(Cl)cc2)n1` [Example 15, 6-acetamido-N-[(1S,2S)-2-[(4-chlorophenoxy)methyl]cyclopentyl]-3-pyrimidin-2-yl-pyridine-2-carboxamide] the same measures were more than 631 nM, 3.98 nM, 8.7 and 6.2.
For `Nc1ccc(-c2ncc(F)cn2)c(C(=O)N[C@H]2CCC[C@@H]2COc2ccc(F)cc2)n1` [Example 22, 6-amino-N-[(1S,2S)-2-[(4-fluorophenoxy)methyl]cyclopentyl]-3-(5-fluoropyrimidin-2-yl)pyridine-2-carboxamide], the values for the Kb on Human OX2 receptor [1] and at Human OX1 receptor [3] were more than 1000 nM and 7.94 nM, respectively. Also, the “pKi average OX1” value at Human OX1 receptor [2] amounted to 8.5. In addition, on Human OX2 receptor [4], the “pKi average OX2” value was 6.3.
Consider `CC(=O)Nc1cc(F)c(-n2nccn2)c(C(=O)N[C@H]2CCC[C@@H]2COc2ccc(F)cc2)c1` [Example 1, 5-acetamido-3-fluoro-N-[(1S,2S)-2-[(4-fluorophenoxy)methyl]cyclopentyl]-2-(triazol-2-yl)benzamide], for which the Kb on Human OX2 receptor [1] is more than 63.1 nM; on Human OX1 receptor [3], 0.794 nM. Besides, on Human OX1 receptor [2], the “pKi average OX1” value came to 9.0. Besides, the “pKi average OX2” value on Human OX2 receptor [4] is 7.3.
As to `CC(=O)Nc1ccc(-c2ncc(F)cn2)c(C(=O)N[C@H]2CCC[C@@H]2COc2ccc(F)cc2)n1` [Example 21, 6-acetamido-N-[(1S,2S)-2-[(4-fluorophenoxy)methyl]cyclopentyl]-3-(5-fluoropyrimidin-2-yl)pyridine-2-carboxamide], the figures for the Kb at Human OX2 receptor [1] and on Human OX1 receptor [3] were more than 794 nM and 20 nM, respectively. Further, the “pKi average OX1” value on Human OX1 receptor [2] was found to be 8.2. Besides, the “pKi average OX2” value on Human OX2 receptor [4] was 5.6.
For `CC(=O)Nc1cc(C(=O)N[C@H]2CCC[C@@H]2COc2ccc(F)cc2)c(-n2nccn2)cn1` [Example 23, 2-acetamido-N-[(1S,2S)-2-[(4-fluorophenoxy)methyl]cyclopentyl]-5-(triazol-2-yl)pyridine-4-carboxamide] the same measures were more than 63.1 nM, 3.16 nM, 8.9 and 6.5.
Consider `CC(=O)Nc1ccc(-c2ncccn2)c(C(=O)N(C)[C@H]2CCC[C@@H]2COc2ccc(F)cc2)n1` [Example 18, 6-acetamido-N-[(1S,2S)-2-[(4-fluorophenoxy)methyl]cyclopentyl]-N-methyl-3-pyrimidin-2-yl-pyridine-2-carboxamide], for which the Kb on Human OX2 receptor [1] is more than 501 nM; at Human OX1 receptor [3], 0.631 nM. Further, the “pKi average OX1” value on Human OX1 receptor [2] stood at 8.6. For the same compound, on Human OX2 receptor [4], the “pKi average OX2” value is recorded as 6.8.
Turning to `COC(=O)Nc1ccc(-n2nccn2)c(C(=O)N[C@H]2CCC[C@@H]2COc2ccc(F)cc2)n1` [Example 10, methyl N-[6-[[(1S,2S)-2-[(4-fluorophenoxy)methyl]cyclopentyl]carbamoyl]-5-(triazol-2-yl)-2-pyridyl]carbamate], the Kb at Human OX2 receptor [1] is more than 794 nM; at Human OX1 receptor [3] it was 79.4 nM. In addition, the “pKi average OX1” value at Human OX1 receptor [2] came out at 8.1. The “pKi average OX2” value at Human OX2 receptor [4] is on record as less than 5.9.
Take `CC(=O)Nc1ccc(-c2ncccn2)c(C(=O)N[C@H]2CCC[C@@H]2COc2ccc(F)cc2)c1F` [Example 2, 3-acetamido-2-fluoro-N-[(1S,2S)-2-[(4-fluorophenoxy)methyl]cyclopentyl]-6-pyrimidin-2-yl-benzamide]: the results for the Kb on Human OX2 receptor [1] and on Human OX1 receptor [3] were more than 2510 nM and 50.1 nM, respectively. On Human OX1 receptor [2], the “pKi average OX1” value turned out to be 7.7. Also, the “pKi average OX2” value on Human OX2 receptor [4] amounted to 5.6.

These data come from patent publication US12240825B2, “Oxexin 1 receptor antagonists” (Heptares Therapeutics Limited, priority 2019, dated 2025).
